One test concerns the target T1, HGFR (Homo sapiens, UniProt P08581).
T1 construct: endogenous in cells; host or cells: MKN-45 human gastric cancer cells
The experiment in a line: Inhibitory activity against the HGFR autophosphorylation using ELISA (MKN-45 cells). In kind it is cell-based. The settings on record: 1 hr with test substance. How it is done:
Human gastric cancer cells (MKN-45) were suspended in a 1% FBS-containing RPMI1640 medium (purchased from Sigma). The cell suspension (1×10^5 cells/ml) was put in a 96-well plate for cell culture (purchased from NUNC, Production No. 167008) at 0.1 ml/well, and then cultured in a 5% CO2 incubator (37° C.) overnight. After the culture, from each well was removed the supernatant, followed by adding 0.05 ml of a 1% FBS-containing RPMI1640 medium. Then, the well was supplied with 0.05 ml of the test substance dissolved in dimethyl sulfoxide (diluted with a 1% FBS-containing RPMI1640 medium), followed by culturing in a 5% CO2 incubator (37° C.) for 1 hr. From each well was removed the supernatant, and each well was washed with 150 μl of PBS, followed by adding 100 μl of a lysis buffer (50 mM Hepes (pH 7.4), 150 mM NaCl, 10% (v/v) glycerol, 1% Triton X-100, 1.5 mM MgCl2, 1 mM EDTA (pH 8.0), 100 mM NaF, 1 mM PMSF, 10 μg/ml Aprotinin, 50 μg/ml Leupeptin, 1 μg/ml Pepstatin A and 1 mM Na3VO4). The plate was shaken at 4° C. for 1 hr to prepare the cell extract.
To a 96-well plate for ELISA (purchased from COSTAR, Production No. 3369) was added 50 μl of 60 mM bicarbonate buffer (pH 9.6) containing 50 μg/ml of an anti-phosphotyrosine antibody (PY20, purchased from Transduction Laboratory, Production No. P-11120). The plate was incubated at 4° C. overnight.
Each well of the plate prepared in 2. was washed three times with 200 μl of PBS, and supplied with 150 μl of 3% BSA/PBS, followed by incubating at room temperature for 2 hrs. Each well was washed three times with 200 μl of PBS, and supplied with 50 μl of the above cell extract, followed by incubating at 4° C. overnight. After the incubation, each well was washed three times with 250 μl of a washing solution (0.1% BSA, 20 mM Tris-HCl (pH 7.6), 137 mM NaCl, and 0.05% Tween-20), and supplied with 70 μl of anti-HGFR antibody (h-Met(C-12), purchased from Santa Cruz, Production No. sc-10) 2,000-fold diluted with a reaction solution (1% BSA, 20 mM Tris-HCl (pH 7.6), 137 mM NaCl and 0.05% Tween-20), followed by incubating at room temperature for 1 hr. The well was washed three times with 250 μl of the washing solution, and supplied with 70 μl of peroxidase-labelled anti-rabbit IgG antibody (purchased from Cell Signaling, Production No. 7074) 2,000-fold diluted with the reaction solution, followed by incubating at room temperature for 1 hr. Each well was washed three times with 250 μl of the washing solution, and supplied with 70 μl of TMB Membrane Peroxidase Substrate (purchased from Funakoshi, Production No. 50-5077-03), followed by incubating at room temperature for 10 min. Each well was supplied with 70 μl of 1 M phosphoric acid, and using the Plate Reader MTP-500 (Corona Electric), the absorbance of the well was instantly determined at a measurement wavelength of 450 nm. While defining the absorbance of a well supplied with the cell extract having no test substance as 100% HGFR autophosphorylation activity, and the absorbance of a well supplied with 50 μl of the lysis buffer as 0% HGFR autophosphorylation activity, the HGFR autophosphorylation activity (%) was calculated for each well.

Test [1] concerns Human gastric cancer cells (MKN-45). The test is described as follows: Inhibitory activity against the proliferation of human gastric cancer cells (MKN-45). In kind it is cell-based. Particulars: 72 h, MKN-45, 1% FBS RPMI1640, 3 days, Cell Counting Kit-8. The method, boiled down:
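MKN-45 cells seeded overnight in RPMI1640 with 1% FBS, then exposed to compound for 3 days at 37° C, 5% CO2. Viability read with CCK-8 after about 1.5 hrs, absorbance at 450 nm (reference 660 nm).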

By IC50 is commonly meant the concentration needed to halve the response being measured.

T1 sequence (P08581 25-1390): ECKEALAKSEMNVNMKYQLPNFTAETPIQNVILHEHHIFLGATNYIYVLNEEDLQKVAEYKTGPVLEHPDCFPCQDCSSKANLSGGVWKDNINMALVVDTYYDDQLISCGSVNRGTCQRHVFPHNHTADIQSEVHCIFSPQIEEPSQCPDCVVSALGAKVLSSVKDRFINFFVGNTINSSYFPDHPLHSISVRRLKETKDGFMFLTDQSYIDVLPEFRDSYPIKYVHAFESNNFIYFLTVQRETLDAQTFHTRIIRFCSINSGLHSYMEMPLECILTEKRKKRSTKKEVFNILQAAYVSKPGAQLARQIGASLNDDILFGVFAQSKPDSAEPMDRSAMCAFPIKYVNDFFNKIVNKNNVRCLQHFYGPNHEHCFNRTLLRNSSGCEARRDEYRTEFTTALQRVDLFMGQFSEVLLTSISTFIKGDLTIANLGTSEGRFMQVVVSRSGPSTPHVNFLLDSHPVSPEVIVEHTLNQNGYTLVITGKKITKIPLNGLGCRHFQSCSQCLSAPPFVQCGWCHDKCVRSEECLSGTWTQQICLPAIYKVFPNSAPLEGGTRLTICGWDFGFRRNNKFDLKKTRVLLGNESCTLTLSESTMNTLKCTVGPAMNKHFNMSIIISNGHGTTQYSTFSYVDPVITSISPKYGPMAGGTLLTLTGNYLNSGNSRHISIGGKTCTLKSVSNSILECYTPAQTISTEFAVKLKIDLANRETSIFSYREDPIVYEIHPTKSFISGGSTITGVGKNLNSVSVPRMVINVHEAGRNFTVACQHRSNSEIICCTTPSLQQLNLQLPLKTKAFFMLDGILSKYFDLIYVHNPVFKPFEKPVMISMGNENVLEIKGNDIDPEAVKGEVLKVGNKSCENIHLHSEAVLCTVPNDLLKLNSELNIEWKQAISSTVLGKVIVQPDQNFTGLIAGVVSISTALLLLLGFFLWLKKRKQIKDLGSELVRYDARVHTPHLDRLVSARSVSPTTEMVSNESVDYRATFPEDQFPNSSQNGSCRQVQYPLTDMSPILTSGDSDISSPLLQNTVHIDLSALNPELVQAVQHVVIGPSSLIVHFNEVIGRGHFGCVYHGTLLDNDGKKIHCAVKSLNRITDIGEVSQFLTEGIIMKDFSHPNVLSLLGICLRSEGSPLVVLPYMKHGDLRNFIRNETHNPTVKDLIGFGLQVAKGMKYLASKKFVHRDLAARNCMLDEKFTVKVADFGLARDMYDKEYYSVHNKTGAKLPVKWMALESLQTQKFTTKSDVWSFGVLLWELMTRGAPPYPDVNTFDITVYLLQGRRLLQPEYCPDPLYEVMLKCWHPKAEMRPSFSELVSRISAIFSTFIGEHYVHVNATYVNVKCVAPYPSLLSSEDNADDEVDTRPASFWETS

`O=C(Nc1cc(Oc2ccc(NC(=O)C3(C(=O)Nc4ccc(F)cc4)CC3)c(F)c2)ccn1)N1CCC(CN2CCC2)CC1` [Example 37, N-(4-{[2-({[4-(Azetidin-1-ylmethyl)piperidin-1-yl]carbonyl}amino)pyridin-4-yl]oxy}-2-fluorophenyl)-N′-(4-fluorophenyl)cyclopropane-1,1-dicarboxamide]: the IC50 stood at 6.6 nM on HGFR and 14 nM in test [1].

Regarding `O=C(Nc1cc(Oc2cc(F)c(NC(=O)C3(C(=O)Nc4ccc(F)cc4)CC3)cc2F)ccn1)N1CCC(O)CC1` [Example 105], the half-maximal inhibitory concentration (IC50) at HGFR came to 8.6 nM; in test [1] it was 4.1 nM.

Turning to `CN(C)CCN1CCN(C(=O)Nc2cc(Oc3ccc(NC(=O)C4(C(=O)Nc5ccc(F)cc5)CC4)cc3)ccn2)CC1` [Example 30, N-[4-({2-[({4-[2-(Dimethylamino)ethyl]piperazin-1-yl}carbonyl)amino]pyridin-4-yl}oxy)phenyl]-N′-(4-fluorophenyl)cyclopropane-1,1-dicarboxamide], the values for the IC50 (at HGFR; in test [1]) were 12 nM and 39 nM, respectively.

Turning to `O=C(Nc1cc(Oc2ccc(NC(=O)C3(C(=O)Nc4ccc(F)cc4)CC3)cc2)ccn1)N1CCC(N2CCC2)CC1` [Example 13, N-{4-[(2-{[(4-Azetidin-1-ylpiperidin-1-yl)carbonyl]amino}pyridin-4-yl)oxy]phenyl}-N′-(4-fluorophenyl)cyclopropane-1,1-dicarboxamide], the IC50 worked out at 37 nM on HGFR and 76 nM in test [1].

Consider `CN(C)C1CCN(C(=O)Nc2cc(Oc3ccc(NC(=O)C4(C(=O)Nc5ccc(F)cc5)CC4)cc3F)ccn2)CC1` [Example 23, N-(4-{[2-({[4-(Dimethylamino)piperidin-1-yl]carbonyl}amino)pyridin-4-yl]oxy}-3-fluorophenyl)-N′-(4-fluorophenyl)cyclopropane-1,1-dicarboxamide], for which the concentration for half-maximal inhibition (IC50) stood at 17 nM against HGFR and 36 nM in test [1].

As for `CN1CCC(N(C)C(=O)Nc2cc(Oc3ccc(NC(=O)C4(C(=O)Nc5ccc(F)cc5)CC4)c(F)c3)ccn2)CC1` [Example 3, N-(2-Fluoro-4-{[2-({[methyl(1-methylpiperidin-4-yl)amino]carbonyl}amino)pyridin-4-yl]oxy}phenyl)-N′-(4-fluorophenyl)cyclopropane-1,1-dicarboxamide], the 50% inhibitory concentration (IC50) on HGFR amounted to 19 nM; in test [1], 15 nM.

Regarding `O=C(Nc1cc(Oc2ccc(NC(=O)C3(C(=O)Nc4ccc(F)cc4)CC3)c(F)c2)ccn1)N1CC(N2CCC2)C1` [Example 73, N-[4-({2-[(1,3′-Biazetidin-1′-ylcarbonyl)amino]pyridin-4-yl}oxy)-2-fluorophenyl]-N′-(4-fluorophenyl)cyclopropane-1,1-dicarboxamide], the IC50 on HGFR stood at 8 nM; in test [1] it was 50 nM.

In the case of `CN(C)C1CCN(C(=O)Nc2cc(Oc3cc(F)c(NC(=O)C4(C(=O)Nc5ccc(F)cc5)CC4)cc3F)ncn2)CC1` [Example 102, N-(4-{[4-({[4-(Dimethylamino)piperidin-1-yl]carbonyl}amino)pyrimidin-6-yl]oxy}-2,5-difluorophenyl)-N′-(4-fluorophenyl)cyclopropane-1,1-dicarboxamide], the IC50 against HGFR is 41 nM; in test [1] it was 40 nM.

For the compound `CCN(CC)CCCNC(=O)Nc1cc(Oc2ccc(NC(=O)C3(C(=O)Nc4ccc(F)cc4)CC3)cc2C)ccn1` [Example 45, N-[4-({2-[({[3-(Diethylamino)propyl]amino}carbonyl)amino]pyridin-4-yl}oxy)-3-methylphenyl]-N′-(4-fluorophenyl)cyclopropane-1,1-dicarboxamide], the IC50 at HGFR was 440 nM; in test [1], 500 nM.

In the case of `CN(C)C1CN(C2CCN(C(=O)Nc3cc(Oc4ccc(NC(=O)C5(C(=O)Nc6ccc(F)cc6)CC5)cc4F)ccn3)CC2)C1` [Example 21, N-[4-({2-[({4-[3-(Dimethylamino)azetidin-1-yl]piperidin-1-yl}carbonyl)amino]pyridin-4-yl}oxy)-3-fluorophenyl]-N′-(4-fluorophenyl)cyclopropane-1,1-dicarboxamide], the 50% inhibitory concentration (IC50) worked out at 11 nM at HGFR and 27 nM in test [1].

Consider `O=C(Nc1cc(Oc2ccc(NC(=O)C3(C(=O)Nc4ccc(F)cc4)CC3)c(F)c2F)ccn1)N1CC(O)C1` [Example 106, N-[2,3-Difluoro-4-[(2-{[(3-hydroxyazetidin-1-yl)carbonyl]amino}pyridin-4-yl)oxy]phenyl}-N′-(4-fluorophenyl)cyclopropane-1,1-dicarboxamide], for which the IC50 is 39 nM against HGFR and 46 nM in test [1].

Regarding `CN(C)[C@@H]1CCN(C(=O)Nc2cc(Oc3ccc(NC(=O)C4(C(=O)Nc5ccccc5)CC4)c(F)c3)ccn2)C1` [Example 59, N-(4-{[2-({[(3R)-3-(Dimethylamino)pyrrolidin-1-yl]carbonyl}amino)pyridin-4-yl]oxy}-2-fluorophenyl)-N′-phenylcyclopropane-1,1-dicarboxamide], the values for the concentration for half-maximal inhibition (IC50) (against HGFR; in test [1]) were 16 nM and 44 nM, respectively.

Consider `CN(C)CC1CCN(C(=O)Nc2cc(Oc3ccc(NC(=O)C4(C(=O)Nc5ccc(F)cc5)CC4)c(F)c3)ccn2)CC1` [Example 8, N-[4-({2-[({4-[(Dimethylamino)methyl]piperidin-1-yl}carbonyl)amino]pyridin-4-yl}oxy)-2-fluorophenyl]-N′-(4-fluorophenyl)cyclopropane-1,1-dicarboxamide], for which the IC50 at HGFR came out at 14 nM; in test [1] it was 20 nM.

Regarding `CN(C)C1CN(C2CCN(C(=O)Nc3cc(Oc4ccc(NC(=O)C5(C(=O)Nc6ccccc6)CC5)c(F)c4)ccn3)CC2)C1` [Example 55], the IC50 turned out to be 16 nM against HGFR and 43 nM in test [1].

Take `CN1CCC(N(C)C(=O)Nc2cc(Oc3ccc(NC(=O)C4(C(=O)Nc5ccc(F)cc5)CC4)cc3)ccn2)CC1` [Example 12]: the half-inhibitory concentration (IC50) turned out to be 40 nM on HGFR and 31 nM in test [1].

On to `O=C(Nc1cc(Oc2ccc(NC(=O)C3(C(=O)Nc4ccc(F)cc4)CC3)cc2)ccn1)N1CCCC1` [Example 69, N-(4-Fluorophenyl)-N′-[4-({2-[(pyrrolidin-1-ylcarbonyl)amino]pyridin-4-yl}oxy)phenyl]cyclopropane-1,1-dicarboxamide], for which the IC50 at HGFR stood at 37 nM; in test [1], 77 nM.

Take `CN(C)[C@@H]1CCN(C(=O)Nc2cc(Oc3ccc(NC(=O)C4(C(=O)Nc5ccc(F)cc5)CC4)cc3F)ccn2)C1` [Example 36, N-(4-{[2-({[(3R)-3-(Dimethylamino)pyrrolidin-1-yl]carbonyl}amino)pyridin-4-yl]oxy}-3-fluorophenyl)-N′-(4-fluorophenyl)cyclopropane-1,1-dicarboxamide]: the IC50 is 15 nM against HGFR and 22 nM in test [1].

Take `COC1CN(C(=O)Nc2cc(Oc3ccc(NC(=O)C4(C(=O)Nc5ccc(F)cc5)CC4)cc3F)ccn2)C1` [Example 79]: the IC50 on HGFR was determined as 16 nM; in test [1], 15 nM.

Regarding `O=C(Nc1cc(Oc2ccc(NC(=O)C3(C(=O)Nc4ccc(F)cc4)CC3)cc2)ccn1)N1CCN(CCN2CCC2)CC1` [Example 28, N-(4-{[2-({[4-(2-Azetidin-1-ylethyl)piperazin-1-yl]carbonyl}amino)pyridin-4-yl]oxy}phenyl)-N′-(4-fluorophenyl)cyclopropane-1,1-dicarboxamide], the results for the IC50 (against HGFR; in test [1]) were 43 nM and 54 nM, respectively.

As for `O=C(Nc1cc(Oc2ccc(NC(=O)C3(C(=O)Nc4ccc(F)cc4)CC3)cc2F)ccn1)N1CCC(N2CCCC2)CC1` [Example 10, N-(4-Fluorophenyl)-N′-{3-fluoro-4-[(2-{[(4-pyrrolidin-1-ylpiperidin-1-yl)carbonyl]amino}pyridin-4-yl)oxy]phenyl}cyclopropane-1,1-dicarboxamide], the values for the half-maximal inhibitory concentration (IC50) (at HGFR; in test [1]) were 21 nM and 42 nM, respectively.

Source of the values: patent US7855290B2, “Pyridine derivatives and pyrimidine derivatives (3)” (Eisai R&D Management Co., Ltd., priority 2005, dated 2010).
